For test [1], the target named is T1, S1P1 (Homo sapiens, UniProt P21453). The test is described as follows: Receptor binding assay, [33P]sphingosine 1-phosphate competition (SPA), S1P1. On the procedure:
Cells were suspended in 50 mM TRIS, pH 7.4, 2 mM EDTA, 250 mM Sucrose (buffer A) and 1× Complete protease inhibitor cocktail (Roche), and disrupted at 4° C. by N2 decompression using a cell disruption bomb (Parr Instrument). […] The pellet was then suspended in 10 mM HEPES, pH 7.4, 1 mM EDTA, 250 mM Sucrose (Buffer B), and 1× Complete EDTA-free protease inhibitor cocktail and homogenized using a potter. Membranes were flash frozen in liquid N2 and stored at −80° C.
[33P]sphingosine 1-phosphate (3000 Ci/mmol; American Radiolabeled Chemicals, Inc.) was added to test compounds in 20% DMSO by competition. […] Triplicate samples were averaged and normalized as percentage of inhibition relative to total binding (only DMSO in well) and non-specific binding (1000-fold excess of unlabeled S1P). Binding data were analyzed using the GraphPad Prism program or Genedata software.
Target sequence in this assay (P21453 whole entry, species assumed): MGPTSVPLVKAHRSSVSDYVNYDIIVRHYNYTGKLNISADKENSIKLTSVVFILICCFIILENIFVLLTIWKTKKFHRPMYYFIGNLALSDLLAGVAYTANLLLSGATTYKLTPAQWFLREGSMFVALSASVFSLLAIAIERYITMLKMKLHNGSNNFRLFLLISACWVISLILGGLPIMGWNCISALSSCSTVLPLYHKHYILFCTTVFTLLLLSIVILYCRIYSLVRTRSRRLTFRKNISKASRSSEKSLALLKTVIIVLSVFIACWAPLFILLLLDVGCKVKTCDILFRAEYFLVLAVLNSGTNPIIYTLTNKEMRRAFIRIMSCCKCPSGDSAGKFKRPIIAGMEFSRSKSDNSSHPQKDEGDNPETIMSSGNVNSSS

For test [2], the target named is T1, S1P1. The test can be described thus: S1P1 internalization assay in S1P1-U2OS cells (cell imaging). The test is classed as cell-based. The note with it: U2OS cells expressing S1P1-EGFP, 1 hour. The method, then: Cellular functional assays: Internalization of Sphingosine-1-phosphate receptor 1 (S1P1) in a human Cell line (U2OS) in a 384-well format using a Cell Imaging analysis.
The S1P1 internalization assay was performed in 384 well plates (Corning® 384 black with clear bottom 3712) using S1P1-U2OS cells from Biolmage (C039A), a human epithelial cell line (Human Bone Osteosarcoma Epithelial Cells). These cells expressed the human S1P1 Receptor fused to the green fluorescent protein (EGFP). A standard CMV promoter (cytomegalovirus promoter) controls the expression of S1P1-EGFP and continuous expression was maintained by addition of geneticin to the culture medium.
S1P1Receptor desensitization induced the internalization of the membrane-localized S1P1-EGFP fusion protein to endosomes, which can be monitored by cell imaging analysis. The cells are plated in low serum medium (Dulbecco's Modified Eagle Medium (DMEM) with Glutamax-1 and high glucose, 1% Penicillin/Streptomycin, 1% Fetal Calf Serum (FCS), 0.5 mg/ml Geneticin) overnight.
The next day, S1P1-U2OS cells are incubated in 20 μl serum free medium (DMEM with Glutamax-1 and high glucose, 0.1% of fatty-acid free Bovin Serum Albumin (BSA), 10 mM, N′-2-Hydroxyethylpiperazine-N′-2 ethanesulphonic acid (HEPES) 1M) for 2 hours at 37° C./5% CO2. The cells are then treated with 4 μl compounds/agonists (6×/3% DMSO) for a total volume of 24 μl, and plates are incubated for 1 hour at 37° C./5% CO2.
S1P1-U2OS cells are fixed with 25 μl Paraformaldehyde 8% and stained with Hoechst 33345 dye (1:1000) for 20 minutes.
They were then washed 3 times with Phosphate Buffered Saline (PBS) and plates are sealed. The internalization of the receptor S1P1-EGFP is measured on Cellomics by calculating the “spot count per object” (“object” corresponds to nuclear and “spot” corresponds to S1P1-EGFP receptor). Internalization data were observed thanks to vHCS View and analyzed using Genedata® software.
Target sequence in this assay (P21453 whole entry): as the sequence (P21453 whole entry, species assumed) above

In a further test the target is S1P3 (Homo sapiens, UniProt Q99500). The test can be described thus: Receptor binding assay, [33P]sphingosine 1-phosphate competition (SPA), S1P3. On the procedure: Membranes were prepared from CHO cells expressing S1P1 or S1P3 for use in ligand and […] binding studies. Cells were suspended in 50 mM TRIS, pH 7.4, 2 mM EDTA, 250 mM Sucrose (buffer A) and 1× Complete protease inhibitor cocktail (Roche), and disrupted at 4° C. by N2 decompression using a cell disruption bomb (Parr Instrument). Following centrifugation at 1000 RPM for 10 min at 4° C., the supernatant was diluted (2×) in buffer A and centrifuged again at 19000 RPM for 75 min at 4° C. The pellet was then suspended in 10 mM HEPES, pH 7.4, 1 mM EDTA, 250 mM Sucrose (Buffer B), and 1× Complete EDTA-free protease inhibitor cocktail and homogenized using a potter. Membranes were flash frozen in liquid N2 and stored at −80° C.
[33P]sphingosine 1-phosphate (3000 Ci/mmol; American Radiolabeled Chemicals, Inc.) was added to test compounds in 20% DMSO by competition. Membranes and WGA SPA beads (GE Healthcare) were added to give a final volume of 100 μl in 96-well plates or 50 μl in 384-well plates with assay concentrations of 30 pM or 15 pM [33P]sphingosine 1-phosphate (respectively for S1P1 or S1P3), 50 mM HEPES, pH 7.5, 5 mM MgCl2, 100 mM NaCl, 0.4% fatty acid-free BSA, 1-5 μg/well of proteins in 96-well plates vs 0.6-1 μg/well of proteins in 384-well plates and 100 μg/well of WGA SPA beads in 96-well plates vs 75 μg/well of WGA SPA beads in 384-well plates. Binding was performed for 60 min at RT on a shaker and bound radioactivity was measured on a PerkinElmer 1450 MicroBeta counter. Triplicate samples were averaged and normalized as percentage of inhibition relative to total binding (only DMSO in well) and non-specific binding (1000-fold excess of unlabeled S1P). Binding data were analyzed using the GraphPad Prism program or Genedata software.

[3] abbreviates: 96 well-plate, read-out: S1P1 binding Ki (M) (96 well-plate).
Where [4] appears, read: 384 well-plate, read-out: S1P1 binding Ki (M) (384 well-plate).
[5] abbreviates: 96 well-plate, read-out: S1P3 binding Ki (M) (96 well-plate).
Where [6] appears, read: 384 well-plate, read-out: S1P3 binding Ki (M) (384 well-plate).

Where two headings read alike, the source gives them in different places.

Among the data in US8802704B2, “Oxadiazole derivatives” (Merck Serono SA, priority 2009, dated 2014) are Ki and EC50 values, retold here.

Chain of S1P3 (Q99500 whole entry, species assumed): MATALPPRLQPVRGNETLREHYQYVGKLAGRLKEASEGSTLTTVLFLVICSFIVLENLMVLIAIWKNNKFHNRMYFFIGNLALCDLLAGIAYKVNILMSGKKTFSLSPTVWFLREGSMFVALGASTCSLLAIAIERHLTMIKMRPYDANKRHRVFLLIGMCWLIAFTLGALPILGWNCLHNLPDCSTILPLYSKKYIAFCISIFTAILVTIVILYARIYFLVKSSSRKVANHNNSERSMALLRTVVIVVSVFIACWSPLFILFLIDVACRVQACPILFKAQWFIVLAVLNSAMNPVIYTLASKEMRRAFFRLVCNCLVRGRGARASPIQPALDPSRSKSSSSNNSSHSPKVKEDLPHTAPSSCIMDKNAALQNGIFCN

One may read the Ki as a measure of affinity in units of concentration, obtained from inhibition or displacement. The term EC50 denotes the midpoint of the concentration-response curve. High values mean lower potency in that assay, low ones higher potency in that assay. Regarding `Cc1ccccc1-c1ccc(-c2nc(-c3ccc(CN(C)CC(=O)O)cc3)no2)cc1C(F)(F)F` [Example 81, N-methyl-N-(4-{5-[2′-methyl-2-(trifluoromethyl)biphenyl-4-yl]-1,2,4-oxadiazol-3-yl}benzyl)glycine], the Ki on S1P1 [1] (setting [3]) turned out to be 4.12e-10 M; at S1P1 [1] (setting [4]), 2.74e-09 M; on S1P3 (setting [5]) it was 8.31e-07 M; at S1P3 (setting [6]) it was 8.55e-07 M. This molecule also showed an EC50 at S1P1 [2] of 11.4 nM.

As to `CN(CC(=O)O)Cc1ccc(-c2noc(-c3ccc(-c4ccccc4F)c(C(F)(F)F)c3)n2)cc1` [Example 89, N-(4-{5-[2′-fluoro-2-(trifluoromethyl)biphenyl-4-yl]-1,2,4-oxadiazol-3-yl}benzyl)-N-methylglycine], the Ki turned out to be 3.49e-10 M on S1P1 [1] (setting [3]), 1.19e-09 M on S1P1 [1] (setting [4]), 6.29e-07 M at S1P3 (setting [5]) and 5.69e-07 M on S1P3 (setting [6]). The EC50 at S1P1 [2] was determined as 6.53 nM.

On to `COCc1cc(-c2nc(-c3ccc(CN(C)CC(=O)O)c(F)c3)no2)ccc1-c1ccccc1C(F)(F)F` [Example 95, N-(2-fluoro-4-{5-[2-(methoxymethyl)-2′-(trifluoromethyl)biphenyl-4-yl]-1,2,4-oxadiazol-3-yl}benzyl)-N-methylglycine], for which the Ki on S1P1 [1] (setting [3]) was found to be 4.26e-10 M; at S1P1 [1] (setting [4]), 3.67e-09 M; on S1P3 (setting [5]), 6.5e-07 M; at S1P3 (setting [6]), 1.03e-06 M. The midpoint of the response on S1P1 [2], the EC50, lay at 13.9 nM.

In the case of `COCc1cc(-c2nc(-c3ccc(CN(C)CC(=O)O)cc3)no2)ccc1-c1ccccc1C(F)(F)F` [Example 97, N-(4-{5-[2-(methoxymethyl)-2′-(trifluoromethyl)biphenyl-4-yl]-1,2,4-oxadiazol-3-yl}benzyl)-N-methylglycine], the results for the Ki at S1P1 [1] (setting [4]), on S1P3 (setting [5]) and at S1P3 (setting [6]) were 2.08e-09 M, 1.57e-06 M and 2.22e-06 M, respectively. This molecule also had an EC50 at S1P1 [2] of 12 nM.

In the case of `Cc1cc(-c2nc(-c3ccc(CN(C)CC(=O)O)cc3)no2)ccc1-c1ccccc1C(F)(F)F` [Example 100, N-methyl-N-(4-{5-[2-methyl-2′-(trifluoromethyl)biphenyl-4-yl]-1,2,4-oxadiazol-3-yl}benzyl)glycine], the Ki came to 1.04e-09 M at S1P1 [1] (setting [3]), 3.49e-09 M at S1P1 [1] (setting [4]), 9.43e-06 M at S1P3 (setting [5]) and 9.67e-06 M at S1P3 (setting [6]). The same molecule came in with an EC50 at S1P1 [2] of 56.1 nM.

Consider `Cc1cc(-c2nc(-c3cccc(CN(C)CC(=O)O)c3)no2)ccc1-c1ccccc1C(F)(F)F` [Example 101, N-methyl-N-(3-{5-[2-methyl-2′-(trifluoromethyl)biphenyl-4-yl]-1,2,4-oxadiazol-3-yl}benzyl)glycine], for which the Ki on S1P1 [1] (setting [4]) was determined as 5.63e-09 M; on S1P3 (setting [5]) it was 9.43e-06 M; at S1P3 (setting [6]), 6.59e-06 M. This molecule returned an EC50 on S1P1 [2] of 69.3 nM.

In the case of `Cc1cc(CN(C)CC(=O)O)ccc1-c1noc(-c2ccc(-c3ccccc3C)c(C(F)(F)F)c2)n1` [Example 103, 2-(methyl(3-methyl-4-(5-(2′-methyl-2-(trifluoromethyl)biphenyl-4-yl)-1,2,4-oxadiazol-3-yl)benzyl)amino)acetic acid], the Ki on S1P1 [1] (setting [4]) amounted to 1.45e-09 M; at S1P3 (setting [5]) it was 4.12e-07 M; at S1P3 (setting [6]) it was 4.68e-07 M. On S1P1 [2], this molecule displayed an EC50 of 17.7 nM.

On to `Cc1cc(-c2nc(-c3cc(F)cc(CN(C)CC(=O)O)c3)no2)ccc1-c1ccccc1C(F)(F)F` [Example 104, N-(3-fluoro-5-{5-[2-methyl-2′-(trifluoromethyl)biphenyl-4-yl]-1,2,4-oxadiazol-3-yl}benzyl)-N-methylglycine], for which the Ki stood at 8.98e-09 M at S1P1 [1] (setting [4]) and 2.14e-06 M on S1P3 (setting [6]). This molecule also gave an EC50 on S1P1 [2] of 15 nM.

With `COCc1cc(-c2nc(-c3ccc(CN(C)CC(=O)O)c(C(F)(F)F)c3)no2)ccc1-c1ccccc1C` [Example 105], the results for the Ki on S1P1 [1] (setting [4]), at S1P3 (setting [5]) and on S1P3 (setting [6]) were 3.3e-09 M, 1.83e-06 M and 1.88e-06 M, respectively. Further, it took 74.9 nM to reach a half-maximal effect on S1P1 [2] (EC50).

In the case of `CCc1ccccc1-c1ccc(-c2nc(-c3ccc(CN(C)CC(=O)O)cc3)no2)cc1C(F)(F)F` [Example 109, N-(4-{5-[2′-ethyl-2-(trifluoromethyl)biphenyl-4-yl]-1,2,4-oxadiazol-3-yl}benzyl)-N-methylglycine], the Ki is 1.5e-09 M on S1P1 [1] (setting [4]) and 2.93e-07 M on S1P3 (setting [6]). Moreover, the EC50 on S1P1 [2] was determined as 11.9 nM.

Take `Cc1ccccc1-c1ccc(-c2nc(-c3cccc(CN(C)CC(=O)O)c3F)no2)cc1C(F)(F)F` [Example 112, N-(2-fluoro-3-{5-[2′-methyl-2-(trifluoromethyl)biphenyl-4-yl]-1,2,4-oxadiazol-3-yl}benzyl)-N-methylglycine]: the Ki at S1P1 [1] (setting [4]) came to 4.95e-10 M; on S1P3 (setting [5]) it was 1.49e-07 M; at S1P3 (setting [6]), 1.92e-07 M. In addition, the EC50 at S1P1 [2] is 6.26 nM.

For the molecule `Cc1ccccc1-c1ccc(-c2nc(-c3ccc(CN(CC(=O)O)C(C)C)cc3)no2)cc1C(F)(F)F` [Example 113, (Isopropyl-{4-[5-(2′-methyl-2-trifluoromethyl-biphenyl-4-yl)-[1,2,4]oxadiazol-3-yl]-benzyl}-amino)-acetic acid], the results for the Ki on S1P1 [1] (setting [4]), on S1P3 (setting [5]) and on S1P3 (setting [6]) were 2.9e-09 M, 2.17e-06 M and 2.7e-06 M, respectively. The molecule further gave an EC50 at S1P1 [2] of 24.8 nM.

Consider `COCc1cc(-c2nc(-c3cccc(CN(C)CC(=O)O)c3F)no2)ccc1-c1ccccc1C(F)(F)F` [Example 114, N-(2-fluoro-3-{5-[2-(methoxymethyl)-2′-(trifluoromethyl)biphenyl-4-yl]-1,2,4-oxadiazol-3-yl}benzyl)-N-methylglycine], for which the Ki was 1.91e-09 M at S1P1 [1] (setting [4]), 1.09e-06 M on S1P3 (setting [5]) and 9.14e-07 M on S1P3 (setting [6]). This molecule had an EC50 on S1P1 [2] of 15.6 nM.

In the case of `CCOc1cc(-c2nc(-c3ccc(CN(C)CC(=O)O)cc3)no2)ccc1-c1ccccc1C(F)(F)F` [Example 115, N-(4-{5-[2-ethoxy-2′-(trifluoromethyl)biphenyl-4-yl]-1,2,4-oxadiazol-3-yl}benzyl)-N-methylglycine], the Ki on S1P1 [1] (setting [4]) was 2.15e-09 M; at S1P3 (setting [5]), 6.68e-07 M; on S1P3 (setting [6]) it was 2.21e-06 M. The molecule also displayed an EC50 at S1P1 [2] of 9.03 nM.

Regarding `Cc1ccccc1-c1ccc(-c2nc(-c3ccc(CN(C)CCCC(=O)O)cc3)no2)cc1C(F)(F)F` [Example 116, 4-[methyl(4-{5-[2′-methyl-2-(trifluoromethyl)biphenyl-4-yl]-1,2,4-oxadiazol-3-yl}benzyl)amino]butanoic acid], the inhibition constant Ki at S1P1 [1] (setting [4]) stood at 1.33e-09 M; on S1P3 (setting [5]), 3.33e-07 M; on S1P3 (setting [6]), 1.31e-06 M. On S1P1 [2], this molecule showed an EC50 of 3.65 nM.
